According to PMC12036197, “Green synthesis of PEGylated iron oxide nanoparticles of Eriobotrya japonica leaves extract in combination with B3, against Plasmodium falciparum 3D7 strain” (Tropical Medicine and Health, 2025):

How the values were obtained:
[1] = tested on: Plasmodium falciparum 3D7; assay: Growth inhibition of Plasmodium falciparum 3D7 in RPMI 1640 culture medium, single drugs; type: cell-based; settings: for Growth inhibition rate: highest growth inhibition, RPMI 1640, 24 h
Description: Plates with a capacity of 4 ml or T25 culture flasks were employed for the cultivation of parasites. CCM culture medium and blood (to sustain a hematocrit of 10% within the culture medium for the proliferation and replication of the parasite) were supplemented into the dishes. […] Parasites were multiplied in a CCM medium containing 10% hematocrit with O + human erythrocyte and albumax (0.5%) serving as a growth factor. The culture plates were incubated at 37 °c in a candle jar, with the fresh medium being replenished every 48 h. A thin blood smear was prepared from the sediment collected from each plate, followed by the quantification of parasites on 10,000 red blood cells.
To investigate the effect of drugs on the culture medium, two stages were conducted. The effect of the drug was performed when 80% of the parasites were in the ring stage and the parasitemia was 6%. […] In the first step, the drugs were treated separately and their IC50 was measured. For plant extract, dilutions of 100, 200, 400 and 800 µg/mL (dry extract) of culture medium were done in 12 wells of a 96-well plate (in triplicate).
For polyethylene glycol, dilutions of 10, 100, 1000 and 10000 µg/mL of culture medium were done in 12 wells of a 96-well plate (in triplicate). For the nanoparticle produced by the PEGylated green synthesis method (PEG-HNPs) dilutions of 50, 100, 200, and 400 µg/mL culture medium were done in 12 wells of 96-well plates (in triplicate). In the second step, the effect of the IC50 combination of drugs with each other was investigated by the Fix ratio method on the culture medium. In this way, the percentage ratio of 0, 10, 30, 50, 70, 90, and 100 of one drug was combined with another drug and it was given an effect on the culture medium, and their synergistic and antagonistic effect was investigated by affecting the amount of parasitemia. Negative control consisted of 15 μL of freshly washed RBC plus 85 μL of CCM. […] Statistical analysis was done using GraphPad prism9 software and the results were analyzed with one-way ANOVA. […]

red blood cells = assay: Hemolytic test; type: cell-based, human; settings: 3 h incubation
Description: To conduct the hemolytic test on the hydroalcoholic extract of […], nicotinamide, and green-synthesized nanoparticles, 5 mL of fresh whole blood with heparin anticoagulant was obtained from a healthy volunteer. After centrifugation and washing with PBS, 1% blood suspension was prepared. In each well of three microplates, 100 µL of the prepared blood was added. Subsequently, 100 µL of the hydroalcoholic extract, nicotinamide, and green-synthesized nanoparticles with concentrations of 0.1, 1, 10, 50, 100 and 200 µg/mL, were added into the second to seventh wells of all three microplates, respectively. The first wells served as negative controls, containing an equal volume of PBS, while the eighth wells were positive controls, containing 100 µL of Triton X-100. After 3 h of incubation and centrifugation, the optical absorbance of the supernatant was measured at a wavelength of 540 nm. The percentage of drug-induced hemolysis was calculated using the following formula [28]: Percenthemolysis%=ODtest-ODnegativecontrol/ODpositivecontrol-ODnegativecontrol×100.
Investigating the hemolytic effect of Eriobotrya japonica hydroalcoholic extract (herbal extract), nicotinamide (NAM), and PEGylated green synthesized iron oxide nanoparticles (HNPs) on red blood cells at concentrations of 0.1, 1, 10, 50, 100 and 200 µg/mL were evaluated (Table 3). The optical absorbance of PBS was measured as negative control 0.01 and the optical absorbance of Triton X-100 was measured as positive control 1.00 (Fig. 5).

Molecule: CCN(CC)CCCC(C)Nc1ccnc2cc(Cl)ccc12 (stereo not drawn) [CQ, chloroquine diphosphate]
- inhibition at 8 µg/mL ([1]; Plasmodium falciparum, 3D7, 24 h, read-out: Growth inhibition rate): 95%

Molecule: NC(=O)c1cccnc1 [NAM, nicotinamide]
- Percentage of drug hemolysis (red blood cells; drug concentration 0.1 µg/mL): 1%
- Percentage of drug hemolysis (red blood cells; drug concentration 1 µg/mL): 2%
- Percentage of drug hemolysis (red blood cells; drug concentration 10 µg/mL): 4%
- Percentage of drug hemolysis (red blood cells; drug concentration 50 µg/mL): 6%
- Percentage of drug hemolysis (red blood cells; drug concentration 100 µg/mL): 8%
- Percentage of drug hemolysis (red blood cells; drug concentration 200 µg/mL): 9%
- Growth inhibition rate ([1]; concentration 3000 µg/ml): 94%

Molecule: polyethylene glycol 600 [PEG]
- Growth inhibition rate ([1]; concentration 10000 µg/ml): 71%
